Experimental data reported in PubChem BioAssay (NCI).
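Tested at 5 concentrations; 48 h exposure; 96-well plates; endpoints linearly interpolated, else capped at highest concentration. Definition used: TGI = concentration required for complete inhibition of growth.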

What was measured:
Assay in all cases: NCI-60 cell line screen, 48 h
SW-620 colon = system: SW-620 colon
SF-539 CNS = system: SF-539 CNS
COLO 205 colon = system: COLO 205 colon
DU-145 prostate = system: DU-145 prostate
M14 melanoma = system: M14 melanoma
MCF7 breast = system: MCF7 breast
SK-MEL-2 melanoma = system: SK-MEL-2 melanoma
U251 CNS = system: U251 CNS
RPMI-8226 leukemia = system: RPMI-8226 leukemia
SF-295 CNS = system: SF-295 CNS
HCT-116 colon = system: HCT-116 colon
SK-MEL-5 melanoma = system: SK-MEL-5 melanoma
RXF 393 renal = system: RXF 393 renal
A498 renal = system: A498 renal
IGROV1 ovarian = system: IGROV1 ovarian
UO-31 renal = system: UO-31 renal
BT-549 breast = system: BT-549 breast
MDA-N = system: MDA-N
T-47D breast = system: T-47D breast

CCOC(=O)C(CCSC)(CCSC)C(=O)OCC
TGI (SW-620 colon): > 100 µM | TGI (SF-539 CNS): > 100 µM | TGI (COLO 205 colon): > 100 µM | TGI (DU-145 prostate): > 100 µM | TGI (M14 melanoma): > 100 µM | TGI (MCF7 breast): > 100 µM | TGI (SK-MEL-2 melanoma): > 100 µM | TGI (U251 CNS): > 100 µM | TGI (RPMI-8226 leukemia): > 100 µM | TGI (SF-295 CNS): > 100 µM | TGI (HCT-116 colon): > 100 µM | TGI (SK-MEL-5 melanoma): > 100 µM | TGI (RXF 393 renal): > 100 µM | TGI (A498 renal): > 100 µM | TGI (IGROV1 ovarian): > 100 µM | TGI (UO-31 renal): > 100 µM | TGI (BT-549 breast): > 100 µM | TGI (MDA-N): > 100 µM | TGI (T-47D breast): > 100 µM

O=C(/C=C/c1ccc(O)c(O)c1)c1ccc(O)cc1O
TGI (SW-620 colon): 35.2 µM | TGI (SF-539 CNS): 25.8 µM | TGI (COLO 205 colon): 31 µM | TGI (DU-145 prostate): 18.9 µM | TGI (M14 melanoma): 34.7 µM | TGI (MCF7 breast): 15.7 µM | TGI (SK-MEL-2 melanoma): 33.4 µM | TGI (U251 CNS): 17.6 µM | TGI (RPMI-8226 leukemia): 55.2 µM | TGI (SF-295 CNS): 50.3 µM | TGI (HCT-116 colon): 28 µM | TGI (SK-MEL-5 melanoma): 26.3 µM | TGI (RXF 393 renal): 25.8 µM | TGI (A498 renal): 34.7 µM | TGI (IGROV1 ovarian): 35.1 µM | TGI (UO-31 renal): 30.3 µM | TGI (BT-549 breast): 14.6 µM | TGI (MDA-N): 19.8 µM | TGI (T-47D breast): 20 µM

C[C@@]12C[C@@H](c3ccccc3O1)N1CCCSC1=N2
TGI (SW-620 colon): > 100 µM | TGI (SF-539 CNS): > 100 µM | TGI (COLO 205 colon): > 100 µM | TGI (DU-145 prostate): > 100 µM | TGI (M14 melanoma): > 100 µM | TGI (MCF7 breast): > 100 µM | TGI (SK-MEL-2 melanoma): > 100 µM | TGI (U251 CNS): > 100 µM | TGI (RPMI-8226 leukemia): > 100 µM | TGI (SF-295 CNS): > 100 µM | TGI (HCT-116 colon): > 100 µM | TGI (SK-MEL-5 melanoma): > 100 µM | TGI (RXF 393 renal): > 100 µM | TGI (A498 renal): > 100 µM | TGI (IGROV1 ovarian): > 100 µM | TGI (UO-31 renal): > 100 µM | TGI (BT-549 breast): > 100 µM | TGI (MDA-N): > 100 µM | TGI (T-47D breast): > 100 µM

CC(C)NC(=O)OCc1c(COC(=O)NC(C)C)c(-c2cc[n+](COC(=O)Cc3ccccc3)cc2)n2c1CCC2
TGI (SW-620 colon): > 100 µM | TGI (SF-539 CNS): > 100 µM | TGI (COLO 205 colon): > 100 µM | TGI (DU-145 prostate): > 100 µM | TGI (M14 melanoma): > 100 µM | TGI (MCF7 breast): > 100 µM | TGI (SK-MEL-2 melanoma): > 100 µM | TGI (U251 CNS): > 100 µM | TGI (RPMI-8226 leukemia): > 100 µM | TGI (SF-295 CNS): > 100 µM | TGI (HCT-116 colon): > 100 µM | TGI (SK-MEL-5 melanoma): > 100 µM | TGI (RXF 393 renal): > 100 µM | TGI (A498 renal): > 100 µM | TGI (IGROV1 ovarian): > 100 µM | TGI (UO-31 renal): > 100 µM | TGI (BT-549 breast): > 100 µM | TGI (MDA-N): > 100 µM | TGI (T-47D breast): > 100 µM

Cc1ccc(/C=C2\CCS(=O)(=O)c3ccccc3C2=O)cc1
TGI (SW-620 colon): 47.9 µM | TGI (SF-539 CNS): > 100 µM | TGI (COLO 205 colon): 30.2 µM | TGI (DU-145 prostate): 27.7 µM | TGI (M14 melanoma): 73.6 µM | TGI (MCF7 breast): 34.8 µM | TGI (SK-MEL-2 melanoma): 44 µM | TGI (U251 CNS): 30.8 µM | TGI (RPMI-8226 leukemia): > 100 µM | TGI (SF-295 CNS): 40.5 µM | TGI (HCT-116 colon): 26.1 µM | TGI (RXF 393 renal): 44.2 µM | TGI (A498 renal): 36.5 µM | TGI (IGROV1 ovarian): 28.7 µM | TGI (UO-31 renal): 25.4 µM | TGI (BT-549 breast): 34 µM | TGI (MDA-N): 77.2 µM | TGI (T-47D breast): 32.6 µM

O=C(NCCCN1CCN(CCCNC(=O)c2cc(-c3ccccc3)nc3ccccc23)CC1)c1cc(-c2ccccc2)nc2ccccc12
TGI (SW-620 colon): > 29.5 µM | TGI (SF-539 CNS): 41.5 µM | TGI (COLO 205 colon): > 71.3 µM | TGI (DU-145 prostate): > 67.1 µM | TGI (M14 melanoma): 5.63 µM | TGI (MCF7 breast): 53.5 µM | TGI (SK-MEL-2 melanoma): 36.9 µM | TGI (U251 CNS): 30.7 µM | TGI (RPMI-8226 leukemia): > 57.8 µM | TGI (SF-295 CNS): 31.6 µM | TGI (HCT-116 colon): > 100 µM | TGI (SK-MEL-5 melanoma): 3.98 µM | TGI (RXF 393 renal): > 60 µM | TGI (A498 renal): 73.6 µM | TGI (IGROV1 ovarian): 27.8 µM | TGI (UO-31 renal): > 42.2 µM | TGI (BT-549 breast): 51.1 µM | TGI (MDA-N): 20.4 µM | TGI (T-47D breast): 33.9 µM
